The source made the active and inactive calls. The calls are words filed in the database; no cut-off is given here.
Experiments:
A-375 [1] = test: Antiproliferative activity against human A375 cells after 72 hrs by MTT assay; type: functional, cell-based; conditions: A-375, 72 h
WM164 = test: Antiproliferative activity against human WM164 cells after 72 hrs by MTT assay; type: functional, cell-based; conditions: WM164, 72 h
M14 = test: Antiproliferative activity against human M14 cells after 72 hrs by MTT assay; type: functional, cell-based; conditions: M14, 72 h
PC-3 [2] = test: Antitumor activity against human PC3 cells xenografted in nude mouse assessed as tumor growth inhibition at 15 mg/kg administered every other day for 3 weeks relative to control; type: functional; conditions: PC-3, 504 h, read-out: TGI
[3] = Antiproliferative activity against human DU145-TxR cells; type: functional, cell-based
[4] = Antitumor activity against human PC3-TxR cells xenografted in nude mouse assessed as reduction in tumor weight at 15 mg/kg administered every other day for 3 weeks relative to control; type: functional; parameters: scale not given: the % may be the effect or the level left
A-375 [5] = test: Antitumor activity against human A375 cells xenografted in nude mouse assessed as tumor growth inhibition at 15 mg/kg, ip administered once daily for 14 days and measured after 20 days by caliper method relative to control; type: functional; conditions: A-375, ip, read-out: TGI
[6] = Antitumor activity against human PC3-TxR cells xenografted in nude mouse assessed as tumor growth inhibition at 15 mg/kg administered every other day for 3 weeks relative to control; type: functional; conditions: 504 h, read-out: TGI
Tubulin (Bos taurus) [7] = molecular target: T1, Tubulin (Bos taurus) (UniProt Q6B856+Q862L2+Q862F3); test: Induction of bovine brain tubulin polymerization at 10 uM measured at time interval of 1 mins for 20 mins by spectrophotometric analysis
Tubulin (Homo sapiens) [8] = molecular target: T2, Tubulin (Homo sapiens) (UniProt P68371+Q9H4B7+P0DPH7+P68366+Q13509+Q71U36+P04350+Q3ZCM7+P07437+P68363+Q9BQE3+Q6PEY2+Q13885+Q9BVA1+Q9BUF5); test: Effect on microtubule network in human WM164 cells assessed as formation of dense and aggregated bundles of microtubules at 100 nM after 18 hrs by DAPI staining based fluorescence confocal microscopic method; type: cell-based
[9] = Resistance index, ratio of IC50 for human DU145-TxR cells to IC50 for human DU145 cells; type: functional
Tubulin (Homo sapiens) [10] = molecular target: T2, Tubulin (Homo sapiens); test: Effect on microtubule network in human WM164 cells assessed as induction of polymerization at 100 nM after 18 hrs by DAPI staining based fluorescence confocal microscopic method; type: cell-based
Tubulin (Homo sapiens) [11] = molecular target: T2, Tubulin (Homo sapiens); test: Disruption of microtubule network in human WM164 cells assessed as microtubule disassembly at 100 nM after 18 hrs by DAPI staining based fluorescence confocal microscopic method; type: cell-based
A-375 [12] = test: Antimigratory activity in human A375 cells assessed as wound closure at 25 nM after 22 hrs by scratch migration assay (reference value: 60.7 +/- 3.5%); type: functional
[13] = Intrinsic clearance in human liver microsomes in presence of NADPH regenerating system; type: ADME, Microsome; conditions: read-out: CLH
A-375 [14] = test: Antimigratory activity in human A375 cells assessed as wound closure at 5 nM after 22 hrs by scratch migration assay (reference value: 60.7 +/- 3.5%); type: functional
DU-145 = test: Antiproliferative activity against human DU145 cells; type: functional, cell-based
[15] = Half-life in CD-1 mouse liver microsomes in presence of NADPH regenerating system measured up to 4 hrs by UPLC-MS analysis; type: ADME, Microsome
Tubulin (Bos taurus) [16] = molecular target: T1, Tubulin (Bos taurus); test: Inhibition of bovine brain tubulin polymerization at 10 uM measured at time interval of 1 mins for 20 mins by spectrophotometric analysis
[17] = Intrinsic clearance in rat liver microsomes pre-incubated for 15 mins followed by addition of NADPH regenerating system by LC-MS analysis; type: ADME, Microsome; conditions: read-out: CLH
PC-3 [18] = test: Antiproliferative activity against human PC3 cells; type: functional, cell-based
RPMI-7951 = test: Antimigratory activity in human RPMI7951 cells assessed as wound closure at 25 nM after 18 hrs by scratch migration assay (reference value: 71.8 +/- 1.8%); type: functional
[19] = Intrinsic clearance in CD-1 mouse liver microsomes in presence of NADPH regenerating system measured up to 4 hrs by UPLC-MS analysis; type: ADME, Microsome; conditions: read-out: CLH
Tubulin (Homo sapiens) [20] = molecular target: T2, Tubulin (Homo sapiens); test: Disruption of microtubule network in human WM164 cells assessed as microtubule fragmentation at 100 nM after 18 hrs by DAPI staining based fluorescence confocal microscopic method; type: cell-based
[21] = Antiproliferative activity against human PC3-TxR cells; type: functional, cell-based
[22] = Half-life in human liver microsomes in presence of NADPH regenerating system; type: ADME, Microsome
[23] = Half-life in rat liver microsomes pre-incubated for 15 mins followed by addition of NADPH regenerating system by LC-MS analysis; type: ADME, Microsome
A-375 [24] = test: Inhibition of anchorage-dependent colony formation in human A375 cells assessed as decrease in colony number at 5 nM after 12 days by crystal violet-staining based assay relative to control; type: functional; conditions: A-375, 288 h
[25] = Resistance index, ratio of IC50 for human PC3-TxR cells to IC50 for human PC3 cells; type: functional

Structure (SMILES) | IC50 (A-375 [1]; read-out: IC50) | IC50 (WM164) | IC50 (M14) | further results
COc1cc(C(=O)c2c[nH]c(-c3c[nH]c4cc(O)ccc34)n2)cc(OC)c1OC | > 1000 nM | > 1000 nM | > 1000 nM | 
COc1cc(C(=O)c2c[nH]c(-c3c[nH]c4ccc(OCc5ccccc5)cc34)n2)cc(OC)c1OC | > 1000 nM | > 1000 nM | > 1000 nM | 
COc1ccc2c(-c3nc(C(=O)c4cc(OC)c(OC)c(OC)c4)c[nH]3)c[nH]c2c1 | 793 nM | > 1000 nM | > 1000 nM | 
CC(=O)O[C@H]1C(=O)[C@@]2(C)[C@H]([C@H](OC(=O)c3ccccc3)[C@]3(O)C[C@H](OC(=O)[C@H](O)[C@@H](NC(=O)c4ccccc4)c4ccccc4)C(C)=C1C3(C)C)[C@]1(OC(C)=O)CO[C@@H]1C[C@@H]2O [PACLITAXEL] |  |  |  | inhibition in vivo at 15 mg/kg (PC-3 [2]): 101%; IC50 [3]: > 1000 nM; Activity [4]: 34.5%; inhibition in vivo at 15 mg/kg (A-375 [5]): 68.6%; inhibition in vivo at 15 mg/kg [6]: 37.8%
CC(=O)O[C@@]12CO[C@@H]1C[C@H](O)[C@@]1(C)C(=O)[C@H](O)C3=C(C)[C@@H](OC(=O)[C@H](O)[C@@H](NC(=O)OC(C)(C)C)c4ccccc4)C[C@@](O)([C@@H](OC(=O)c4ccccc4)[C@H]21)C3(C)C [DOCETAXEL ANHYDROUS] |  |  |  | IC50 [3]: 352 nM; Activity (Tubulin (Bos taurus) [7]): Active; Activity (Tubulin (Homo sapiens) [8]): Active; Ratio IC50 [9]: >3523; Activity (Tubulin (Homo sapiens) [10]): Active
COc1cc(C(=O)c2c[nH]c(-c3c[nH]c4cc(OCc5ccccc5)ccc34)n2)cc(OC)c1OC | > 1000 nM | > 1000 nM | > 1000 nM | 
COc1cc(C(=O)c2c[nH]c(-c3c(-c4ccccc4)[nH]c4ccccc34)n2)cc(OC)c1OC | > 1000 nM | > 1000 nM | > 1000 nM | 
COc1cc(C(=O)c2c[nH]c(-c3c[nH]c4ccc(O)cc34)n2)cc(OC)c1OC | > 1000 nM | > 1000 nM | > 1000 nM | 
COc1cc2c(c(OC)c1OC)-c1ccc(OC)c(=O)cc1[C@@H](NC(C)=O)CC2 [COLCHICINE] |  | 10.8 nM | 16.6 nM | Activity (A-375 [12]): 20.7%; Activity (A-375 [14]): 46%; IC50 (DU-145): 35.5 nM; IC50 (PC-3 [18]): 10.4 nM; IC50 [3]: > 1000 nM; Activity (RPMI-7951): 42.8%; IC50 (A-375 [1]): 14.1 nM; IC50 [21]: 37.4 nM; Ratio IC50 [9]: >28; inhibition at 0.005 µM (A-375 [24]): 24.7%; Ratio IC50 [25]: 3.6
COc1cc(C(=O)c2c[nH]c(-c3c[nH]c4c(OCc5ccccc5)cccc34)n2)cc(OC)c1OC | > 1000 nM | > 1000 nM | > 1000 nM | 
COc1cc(C(=O)c2c[nH]c(-c3c[nH]c4cccc(OC)c34)n2)cc(OC)c1OC | > 1000 nM | > 1000 nM | > 1000 nM | 
COC(=O)c1ccc2c(-c3nc(C(=O)c4cc(OC)c(OC)c(OC)c4)c[nH]3)c[nH]c2c1 | > 1000 nM | > 1000 nM | > 1000 nM | 
COc1cc(C(=O)c2c[nH]c(-c3c[nH]c4cccc(OCc5ccccc5)c34)n2)cc(OC)c1OC | > 1000 nM | > 1000 nM | > 1000 nM | 

More lines, main results first:

IC50 (A-375 [1]; read-out: IC50) | Structure (SMILES) | IC50 (WM164) | IC50 (M14) | further results
67.8 nM | COc1cc(C(=O)c2c[nH]c(-c3c[nH]c4cc(Br)ccc34)n2)cc(OC)c1OC | 55.4 nM | 41.2 nM | 
21.1 nM | COc1cc(C(=O)c2c[nH]c(-c3c[nH]c4cc(C)ccc34)n2)cc(OC)c1OC | 23.7 nM | 21.7 nM | 
19.2 nM | COc1cc(C(=O)c2c[nH]c(-c3c[nH]c4ccc(F)cc34)n2)cc(OC)c1OC | 80.9 nM | 18 nM | 
13.1 nM | COc1cc(C(=O)c2c[nH]c(-c3c[nH]c4c(C)cccc34)n2)cc(OC)c1OC | 61.3 nM | 10.8 nM | 
8.6 nM | COc1cc(C(=O)c2c[nH]c(-c3ccc4[nH]ccc4c3)n2)cc(OC)c1OC | 6.1 nM | 18.5 nM | 
1.8 nM | COc1cc(C(=O)c2c[nH]c(-c3c[nH]c4cccc(C)c34)n2)cc(OC)c1OC | 3.2 nM | 1.7 nM | Activity (Tubulin (Homo sapiens) [11]): Active; Activity (A-375 [12]): 25.9%; CLint scaled [13]: 3.1 mL/min/kg; Activity (A-375 [14]): 48.5%; IC50 (DU-145): 13.8 nM; half-life [15]: 145 min; inhibition (Tubulin (Bos taurus) [16]): Active; CLint scaled [17]: 26 mL/min/kg; IC50 (PC-3 [18]): 5.2 nM; IC50 [3]: 25.2 nM; Activity (RPMI-7951): 35.6%; CLint scaled [19]: 23.6 mL/min/kg; Activity (Tubulin (Homo sapiens) [20]): Active; IC50 [21]: 3.9 nM; half-life [22]: 402 min; Ratio IC50 [9]: 1.8; half-life [23]: 108 min; inhibition at 0.005 µM (A-375 [24]): 59%; Ratio IC50 [25]: 0.8
278 nM | COc1cc(C(=O)c2c[nH]c(-c3c[nH]c4ccc(C)cc34)n2)cc(OC)c1OC | 552 nM | 177 nM | 
61.8 nM | COc1cc(C(=O)c2c[nH]c(-c3c[nH]c4ccc(Cl)cc34)n2)cc(OC)c1OC | 160 nM | 64.9 nM | 
7.2 nM | COc1cc(C(=O)c2c[nH]c(-c3c[nH]c4cccc(F)c34)n2)cc(OC)c1OC |  | 8.2 nM | 
8 nM | COc1cc(C(=O)c2c[nH]c(-c3ccc4cc[nH]c4c3)n2)cc(OC)c1OC | 3.8 nM | 6.1 nM | CLint scaled [13]: 2.73 mL/min/kg; half-life [15]: 334 min; CLint scaled [17]: 3.1 mL/min/kg; CLint scaled [19]: 10.3 mL/min/kg; half-life [22]: 457 min; half-life [23]: 911 min
13.8 nM | COc1cc(C(=O)c2c[nH]c(-c3c[nH]c4cccc(Br)c34)n2)cc(OC)c1OC | 67.1 nM | 10.4 nM | 
286 nM | COc1cc(C(=O)c2c[nH]c(-c3cccc4cc[nH]c34)n2)cc(OC)c1OC | 436 nM | 241 nM | 
17.5 nM | COc1cc(C(=O)c2c[nH]c(-c3c[nH]c4cc(F)ccc34)n2)cc(OC)c1OC | 10.3 nM | 5.8 nM | 
164 nM | COc1cc(C(=O)c2c[nH]c(-c3c[nH]c4ccc(Br)cc34)n2)cc(OC)c1OC | 442 nM | 104 nM | 
38.3 nM | COc1cc(C(=O)c2c[nH]c(-c3c[nH]c4c(OC)cccc34)n2)cc(OC)c1OC | 115 nM | 34.1 nM | 

From ChEMBL document CHEMBL4364286, “Structure-Guided Design, Synthesis, and Biological Evaluation of (2-(1H-Indol-3-yl)-1H-imidazol-4-yl)(3,4,5-trimethoxyphenyl) Methanone (ABI-231) Analogues Targeting the Colchicine Binding Site in Tubulin” (J Med Chem, 2019)
